Assay results published in patent US20180353462A1, “[…] AGENTS […] FLAVONOID DERIVATIVES TARGETING KINASES, SIRTUINS AND ONCOGENIC AGENTS FOR THE TREATMENT OF CANCERS” (priority 2015, published 2018).

How the values were obtained:
[1] = test system: A549 (Lung); test: WST-1 anticancer cell proliferation assay, A549; type: cell-based; details: 72 hours
Description: (§1) Bioactivity of the above-described compounds has been verified by an anticancer cell proliferation assay using the WST-1 (4-[3-(4-iodophenyl)-2-(4-nitrophenyl)-2H-5-tetrazolio]-1, 3-benzene disulfonate) colorimetric assay by Roche Life Sciences®. Anticancer activity was tested against several standard cancer cell lines including brain, breast, Kaposi sarcoma, leukemia, lung, melanoma, tenosynovial giant cell tumor, ovarian, pancreatic, colon and prostate cancer. Cells were trypsinized and plated into 96 well plates in 50 μl of media and incubated overnight. The next day approximately 18 hours after plating, 50 μl of media containing the required flavonoid-based pharmaceutical composition was added per well. Cells were plated at a density so that 72 hours post drug addition, the cells will be in log phase (500)-2000 cells/well). The compounds and extracts were solubilized in Dimethyl sulfoxide (DMSO). The cells are allowed to proliferate for 72 hours 37° C. in humidified atmosphere of 5% CO2. The experiment is terminated using WST-1 (Roche®) 10 μl per well and absorbance is read at 450 nm %690 nm. The effect of drugs on growth is assessed as percent of cell viability. The IC50 values were determined from the extract dose versus control growth curves using Graphpad Prism® software. All experiments were carried out in duplicate and the mean results determined.

[2] = test system: PC-3 (Prostate); test: WST-1 anticancer cell proliferation assay, PC-3; type: cell-based; details: 72 hours
Description: as §1

[3] = target: MMP-7 (Homo sapiens, UniProt P09237); test: Inhibition of matrix metalloproteinase, MMP-7; type: biochemical; details: Table 3 Matrix metalloproteinase
Text: (§2) Inhibition of Sirtuins, Matrix Metalloproteinase, Bromodomains was Also Confirmed Using Standard Protocols and the Results are Present in Table 2.

[4] = test system: CFPAC-1 pancreatic cancer xenograft; test: Human pancreatic cancer xenograft CFPAC-1 in scid mice; type: in vivo; details: CFPAC-1 cells implanted on scid mice
Text: The results of the anticancer activity are presented in Tables 3 and 4 (above) and in FIG. 6, Hela cells shown at (A) and CMK cells at (B) and MV4-11 and MOLT-14 acute myeloid leukemia cells.

[5] = target: BCL-2 (Homo sapiens, UniProt P10415); test: BCL-2 inhibition; type: binding; details: Table 3
[6] = target: MMP-9 (Homo sapiens, UniProt P14780); test: Inhibition of matrix metalloproteinase, MMP-9; type: biochemical; details: Table 3 Matrix metalloproteinase
Text: as §2

[7] = target: MMP-3 (Homo sapiens, UniProt P08254); test: Inhibition of matrix metalloproteinase, MMP-3; type: biochemical; details: Table 3 Matrix metalloproteinase
Text: as §2

Chain of MMP-7 (P09237 95-267): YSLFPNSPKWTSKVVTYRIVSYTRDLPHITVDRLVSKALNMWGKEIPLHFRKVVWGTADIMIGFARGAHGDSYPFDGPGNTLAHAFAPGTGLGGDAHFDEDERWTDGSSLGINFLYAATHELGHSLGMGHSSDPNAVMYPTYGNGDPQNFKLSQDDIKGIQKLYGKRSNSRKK
Chain of BCL-2 (P10415 whole entry): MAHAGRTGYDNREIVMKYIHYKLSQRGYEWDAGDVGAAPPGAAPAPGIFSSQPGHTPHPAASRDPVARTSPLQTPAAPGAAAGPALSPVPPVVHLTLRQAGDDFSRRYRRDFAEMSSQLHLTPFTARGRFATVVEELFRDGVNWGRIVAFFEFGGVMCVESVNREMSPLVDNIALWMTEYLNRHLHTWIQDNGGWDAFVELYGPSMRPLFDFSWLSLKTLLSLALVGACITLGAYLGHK
Chain of MMP-9 (P14780 94-707): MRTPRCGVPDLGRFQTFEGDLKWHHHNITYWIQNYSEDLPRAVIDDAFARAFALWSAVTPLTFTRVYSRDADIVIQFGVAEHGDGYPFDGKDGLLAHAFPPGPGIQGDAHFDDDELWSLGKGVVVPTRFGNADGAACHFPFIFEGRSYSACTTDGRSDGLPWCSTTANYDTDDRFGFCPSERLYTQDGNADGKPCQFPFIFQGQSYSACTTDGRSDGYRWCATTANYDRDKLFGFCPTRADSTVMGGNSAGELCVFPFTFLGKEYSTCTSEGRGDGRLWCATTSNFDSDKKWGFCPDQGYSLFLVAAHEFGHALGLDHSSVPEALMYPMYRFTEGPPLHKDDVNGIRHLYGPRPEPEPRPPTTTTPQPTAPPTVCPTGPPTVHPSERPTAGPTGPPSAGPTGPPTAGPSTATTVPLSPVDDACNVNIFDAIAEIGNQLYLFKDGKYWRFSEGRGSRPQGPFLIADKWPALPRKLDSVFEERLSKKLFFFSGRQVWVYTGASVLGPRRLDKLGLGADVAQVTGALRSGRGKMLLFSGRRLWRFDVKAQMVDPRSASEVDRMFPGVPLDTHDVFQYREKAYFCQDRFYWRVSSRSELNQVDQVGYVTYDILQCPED
Chain of MMP-3 (P08254 100-477): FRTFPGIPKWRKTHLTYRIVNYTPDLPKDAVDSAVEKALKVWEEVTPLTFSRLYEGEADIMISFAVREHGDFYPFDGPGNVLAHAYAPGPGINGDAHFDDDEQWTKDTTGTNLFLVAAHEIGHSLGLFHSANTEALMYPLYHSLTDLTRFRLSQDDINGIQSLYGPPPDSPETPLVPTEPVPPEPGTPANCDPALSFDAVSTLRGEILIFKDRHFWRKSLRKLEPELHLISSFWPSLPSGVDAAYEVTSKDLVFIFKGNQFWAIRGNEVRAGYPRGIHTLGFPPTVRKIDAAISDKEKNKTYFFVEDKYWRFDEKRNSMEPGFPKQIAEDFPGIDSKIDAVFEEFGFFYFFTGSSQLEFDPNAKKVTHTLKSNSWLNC

| Compound | IC50 [1] | IC50 [2] | IC50 [3] | inhibition of tumor compared to the control [4] | IC50 [5] | IC50 [6] | IC50 [7] |
| --- | --- | --- | --- | --- | --- | --- | --- |
| COc1cc(-c2cc(=O)c3c(O)c(C/C=C(\C)CCC=C(C)C)c(O)cc3o2)ccc1O [FBL-03A] | 17 µM | 26 µM | – | – | – | – | – |
| COc1cc(-c2cc(=O)c3c(O)c(CC=C(C)C)c(O)cc3o2)ccc1O [FBL-03B] | – | – | 17.5 µM | significant inhibition of tumor | – | – | – |
| COc1cc(-c2cc(=O)c3c(O)cc(O)c(C/C=C(\C)CCC=C(C)C)c3o2)ccc1O [FBL-03C] | 9.4 µM | 20 µM | – | – | – | – | – |
| COc1cc(-c2cc(=O)c3c(O)cc(O)c(CC=C(C)C)c3o2)ccc1O [FBL-03G] | – | – | 3.35 µM | significant inhibition of tumor | 2.49 µM | 85.4 µM | 66.3 µM |
